EP4206196A1, “PYRIMIDINE SUBSTITUTED DERIVATIVES AS TYK2 INHIBITORS” (Almirall S.A., priority 2021, dated 2023)
pIC50, pKd: −log10 of the molar value. Where two headings read alike, the source gives them in different places.

What was measured:
[1] = target: T1, TYK2 (JH2domain-pseudokinase) (Homo sapiens, UniProt P29597); assay: TYK2 JH2 domain binding assay (KINOMEscan)
T1 construct: TYK2 (JH2domain-pseudokinase)-tagged T7 phage strains were prepared in an E. coli host derived from the BL21 strain; made in house; host or cells: E. coli BL21-derived host (T7 phage) or HEK-293 cells
Method in brief: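 Competition binding of DNA-tagged TYK2 JH2 pseudokinase domain against immobilised affinity ligand, 1 h at room temperature in SeaBlock/PBS/Tween/DTT buffer with about 1% DMSO. Bound kinase eluted and quantified by qPCR. Kd taken from 11-point 3-fold series, usually 30,000 nM top, fitted by Levenberg-Marquardt nonlinear least squares.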

[2] = tested on: STAT1/3 through TYK2/JAK1; assay: IFNa induced STAT phosphorylation in HEK293 cells (SIE-bla reporter gene); type: cell-based; conditions: HEK293T-sie-bla cells, IFNa at EC80, 4 hours, read-out: Inhibition of IFNa induced STAT phosphorylation HEK293 cells IC50
Method in brief: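 HEK293T cells carrying a SIE-driven β-lactamase reporter were co-treated with compound (1/5 serial dilution, 10 points, 0.1% DMSO final) and IFNa at EC80 for 4 h at 37°C. β-Lactamase substrate was added to stop the stimulation, followed by overnight dark incubation and FRET read. IC50 from a four-parameter logistic fit.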

T1 sequence (P29597 589-875 limits assumed): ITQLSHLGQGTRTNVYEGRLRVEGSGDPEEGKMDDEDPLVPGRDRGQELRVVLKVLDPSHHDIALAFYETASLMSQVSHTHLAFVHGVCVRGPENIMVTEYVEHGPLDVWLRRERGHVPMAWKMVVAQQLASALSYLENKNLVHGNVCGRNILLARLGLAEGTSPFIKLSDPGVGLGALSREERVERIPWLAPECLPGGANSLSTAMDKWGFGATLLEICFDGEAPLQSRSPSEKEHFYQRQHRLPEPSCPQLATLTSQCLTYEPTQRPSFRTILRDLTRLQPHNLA

Row | Compound | pKd [1] | pIC50 ([2]; Homo sapiens, HEK293) | pIC50 [2]
1 | Cc1cc(Nc2cc(Nc3ncc(-c4cn(C)cn4)cc3N(C)S(C)(=O)=O)ncn2)nc(C)n1 [Example 147, N-[2-[[6-[(2,6-dimethylpyrimidin-4-yl)amino]pyrimidin-4-yl]amino]-5-(1-methylimidazol-4-yl)-3-pyridyl]-N-methyl-methanesulfonamide] | > 9.70 | 7.00 to 8.00 | 
2 | COc1c(-c2nc(C)n(C)n2)ccnc1Nc1cc(Nc2cc(C)nc(C)n2)ncn1 [Example 148, N4-(2,6-dimethylpyrimidin-4-yl)-N6-[4-(1,5-dimethyl-1,2,4-triazol-3-yl)-3-methoxy-2-pyridyl]pyrimidine-4,6-diamine] | > 9.70 | 7.00 to 8.00 | 
3 | Cc1cc(Nc2cc(Nc3ncc(-c4cnn(C)c4C)cc3P(C)(C)=O)ncn2)nc(C)n1 [Example 149, N6-[3-dimethylphosphoryl-5-(1,5-dimethylpyrazol-4-yl)-2-pyridyl]-N4-(2,6-dimethylpyrimidin-4-yl)pyrimidine-4,6-diamine] | > 9.70 | > 8.00 | 
4 | Cc1cc(Nc2cc(Nc3nccc(C)c3S(C)(=O)=O)ncn2)nc(C)n1 [Example 150, N4-(2,6-dimethylpyrimidin-4-yl)-N6-(4-methyl-3-methylsulfonyl-2-pyridyl)pyrimidine-4,6-diamine] | > 9.70 | > 8.00 | 
5 | Cc1c(-c2cnc(Nc3cc(NC(=O)C4CC4)ncn3)c(S(C)(=O)=O)c2)cnn1C [Example 151, N-[6-[[5-(1,5-dimethylpyrazol-4-yl)-3-methylsulfonyl-2-pyridyl]amino]pyrimidin-4-yl]cyclopropanecarboxamide] | > 9.70 | > 8.00 | 
6 | Cc1c(-c2cnc(Nc3cc(Nc4ccc(F)cn4)ncn3)c(S(C)(=O)=O)c2)cnn1C [Example 152, N4-[5-(1,5-dimethylpyrazol-4-yl)-3-methylsulfonyl-2-pyridyl]-N6-(5-fluoro-2-pyridyl)pyrimidine-4,6-diamine] | > 9.70 | > 8.00 | 
7 | Cc1cc(Nc2cc(Nc3ncc(-c4cnn(C)c4C)c(C)c3S(C)(=O)=O)ncn2)nc(C)n1 [Example 153, N6-[5-(1,5-dimethylpyrazol-4-yl)-4-methyl-3-methylsulfonyl-2-pyridyl]-N4-(2,6-dimethylpyrimidin-4-yl)pyrimidine-4,6-diamine] | > 9.70 | > 8.00 | 
8 | Cc1cc(Nc2cc(Nc3ncc(-c4nc(C)n(C)n4)cc3N(C)S(C)(=O)=O)ncn2)ncn1 [Example 154, N-[5-(1,5-dimethyl-1,2,4-triazol-3-yl)-2-[[6-[(6-methylpyrimidin-4-yl)amino]pyrimidin-4-yl]amino]-3-pyridyl]-N-methyl-methanesulfonamide] | > 9.70 | 7.00 to 8.00 | 
9 | Cc1cc(Nc2cc(Nc3ncc(-c4nc(C)nn4C)cc3N(C)S(C)(=O)=O)ncn2)ncn1 [Example 155, N-[5-(2,5-dimethyl-1,2,4-triazol-3-yl)-2-[[6-[(6-methylpyrimidin-4-yl)amino]pyrimidin-4-yl]amino]-3-pyridyl]-N-methyl-methanesulfonamide] | 9.00 to 9.70 | 6.00 to 7.00 | 
10 | Cc1cc(Nc2cc(Nc3nc(C)ccc3S(C)(=O)=O)ncn2)ncn1 [Example 156, N6-(6-methyl-3-methylsulfonyl-2-pyridyl)-N4-(6-methylpyrimidin-4-yl)pyrimidine-4,6-diamine] | 8.00 to 9.00 | < 6.00 | 
11 | Cc1cc(Nc2cc(Nc3ncc(C4CCOCC4)cc3N(C)S(C)(=O)=O)ncn2)nc(C)n1 [Example 157, N-[2-[[6-[(2,6-dimethylpyrimidin-4-yl)amino]pyrimidin-4-yl]amino]-5-(oxan-4-yl)pyridin-3-yl]-N-methylmethanesulfonamide] | 9.00 to 9.70 | 7.00 to 8.00 | 
12 | Cc1ccc(Nc2cc(Nc3ncc(-c4cnn(C)c4C)cc3N(C)S(C)(=O)=O)ncn2)nn1 [Example 158, N-[5-(1,5-dimethylpyrazol-4-yl)-2-[[6-[(6-methylpyridazin-3-yl)amino]pyrimidin-4-yl]amino]-3-pyridyl]-N-methyl-methanesulfonamide] | > 9.70 | 7.00 to 8.00 | 
13 | COc1c(-c2noc(C)n2)ccnc1Nc1cc(Nc2cc(C)nc(C)n2)ncn1 [Example 159, 4-N-(2,6-dimethylpyrimidin-4-yl)-6-N-[3-methoxy-4-(5-methyl-1,2,4-oxadiazol-3-yl)pyridin-2-yl]pyrimidine-4,6-diamine] | > 9.70 | > 8.00 | 
14 | Cc1c(-c2cnc(Nc3cc(NC(=O)[C@H]4C[C@H]4F)ncn3)c(N(C)S(C)(=O)=O)c2)cnn1C [Example 160, (1R,2R)-N-[6-[[5-(1,5-dimethylpyrazol-4-yl)-3-[methyl(methylsulfonyl)amino]-2-pyridyl]amino]pyrimidin-4-yl]-2-fluoro-cyclopropanecarboxamide] | > 9.70 | 7.00 to 8.00 | 
15 | Cc1c(-c2cnc(Nc3cc(NC(=O)C4CC4)ncn3)c(P(C)(C)=O)c2)cnn1C [Example 161, N-[6-[[3-dimethylphosphoryl-5-(1,5-dimethylpyrazol-4-yl)-2-pyridyl]amino]pyrimidin-4-yl]cyclopropanecarboxamide] | > 9.70 | 7.00 to 8.00 | 
16 | Cc1cc(Nc2cc(Nc3nc(C)c(-c4cnn(C)c4)cc3N(C)S(C)(=O)=O)ncn2)ncn1 [Example 162, N-methyl-N-[6-methyl-5-(1-methylpyrazol-4-yl)-2-[[6-[(6-methylpyrimidin-4-yl)amino]pyrimidin-4-yl]amino]-3-pyridyl]methanesulfonamide] | > 9.70 | > 8.00 | 
17 | Cc1cc(Nc2cc(Nc3nc(C)c(-c4cnn(C)c4C)cc3N(C)S(C)(=O)=O)ncn2)ncn1 [Example 163, N-[5-(1,5-dimethylpyrazol-4-yl)-6-methyl-2-[[6-[(6-methylpyrimidin-4-yl)amino]pyrimidin-4-yl]amino]-3-pyridyl]-N-methyl-methanesulfonamide] | > 9.70 | > 8.00 | 
18 | CN=S(C)(=O)c1cccnc1Nc1cc(Nc2cc(C)nc(C)n2)ncn1 (stereo not shown) [Example 164, N4-(2,6-dimethylpyrimidin-4-yl)-N6-[3-(N,S-dimethylsulfonimidoyl)-2-pyridyl]pyrimidine-4,6-diamine] | > 9.70 | 7.00 to 8.00 | 
19 | COc1cc(-c2cnn(C)c2)c(C)nc1Nc1cc(Nc2cc(C)ncn2)ncn1 [Example 165, N4-[3-methoxy-6-methyl-5-(1-methylpyrazol-4-yl)-2-pyridyl]-N6-(6-methylpyrimidin-4-yl)pyrimidine-4,6-diamine] | 9.00 to 9.70 | 6.00 to 7.00 | 
20 | Cc1cc(Nc2cc(Nc3ncc(C4CCCCO4)cc3N(C)S(C)(=O)=O)ncn2)nc(C)n1 (stereo not shown) [Example 167, N-[2-[[6-[(2,6-dimethylpyrimidin-4-yl)amino]pyrimidin-4-yl]amino]-5-tetrahydropyran-2-yl-3-pyridyl]-N-methyl-methanesulfonamide] | > 9.70 | > 8.00 | 
21 | CN=S(C)(=O)c1cc(-c2cnn(C)c2C)cnc1Nc1cc(Nc2cc(C)nc(C)n2)ncn1 (stereo not shown) [Example 168, N6-[5-(1,5-dimethylpyrazol-4-yl)-3-(N,S-dimethylsulfonimidoyl)-2-pyridyl]-N4-(2,6-dimethylpyrimidin-4-yl)pyrimidine-4,6-diamine] | > 9.70 | > 8.00 | 
22 | COCCn1cnc(-c2ccnc(Nc3cc(Nc4cc(C)nc(C)n4)ncn3)c2OC)n1 [Example 169, N6-(2,6-dimethylpyrimidin-4-yl)-N4-[3-methoxy-4-[1-(2-methoxyethyl)-1,2,4-triazol-3-yl]-2-pyridyl]pyrimidine-4,6-diamine] | > 9.70 | 7.00 to 8.00 | 
23 | Cc1cc(Nc2cc(Nc3ncc(-c4ocnc4C)cc3N(C)S(C)(=O)=O)ncn2)nc(C)n1 [Example 170, N-[2-[[6-[(2,6-dimethylpyrimidin-4-yl)amino]pyrimidin-4-yl]amino]-5-(4-methyl-1,3-oxazol-5-yl)pyridin-3-yl]-N-methylmethanesulfonamide] | > 9.70 | 7.00 to 8.00 | 
24 | Cc1cc(Nc2cc(Nc3ncc(C4CC4)cc3P(C)(C)=O)ncn2)nc(C)n1 [Example 171, 4-N-(5-cyclopropyl-3-dimethylphosphorylpyridin-2-yl)-6-N-(2,6-dimethylpyrimidin-4-yl)pyrimidine-4,6-diamine] | > 9.70 | 7.00 to 8.00 | 
25 | Cc1cc(Nc2cc(Nc3ncccc3C(C)(C)O)ncn2)nc(C)n1 [Example 172, 2-[2-[[6-[(2,6-dimethylpyrimidin-4-yl)amino]pyrimidin-4-yl]amino]pyridin-3-yl]propan-2-ol] | 9.00 to 9.70 | 6.00 to 7.00 | 
26 | COc1cc(-c2cnn(C)c2C)c(C)nc1Nc1cc(Nc2cc(C)ncn2)ncn1 [Example 176, N6-[5-(1,5-dimethylpyrazol-4-yl)-3-methoxy-6-methyl-2-pyridyl]-N4-(6-methylpyrimidin-4-yl)pyrimidine-4,6-diamine] | 9.00 to 9.70 | 7.00 to 8.00 | 
27 | N4-(2,6-dimethylpyrimidin-4-yl)-N6-(3-methoxy-5-tetrahydropyran-2-yl-2-pyridyl)pyrimidine-4,6-diamine [Example 166] | 8.00 to 9.00 |  | 6.00 to 7.00
28 | N4-(2,6-dimethylpyrimidin-4-yl)-N6-[2-ethoxy-3-(1-methyl-1,2,4-triazol-3-yl)phenyl]pyrimidine-4,6-diamine [Example 45] | 9.00 to 9.70 |  | 6.00 to 7.00
29 | N4-(2,6-dimethylpyrimidin-4-yl)-N6-[4-(3-methylimidazol-4-yl)-2-methylsulfonyl-phenyl]pyrimidine-4,6-diamine [Example 26] | 9.00 to 9.70 |  | 6.00 to 7.00
